These results are taken from article PMC9321663, “The DevTox Germ Layer Reporter Platform: An Assay Adaptation of the Human Pluripotent Stem Cell Test” (Toxics, 2022).

In series [1] the test system is SOX17 (endoderm marker) in RUES2-GLR cells. Kind of series: DevTox GLR-Endo assay: decrease in percent SOX17-positive cells (AEID 3094, Sox17_dn). The settings on record: for hit call designation (in words): DevTox GLR-Endo prediction against developmental toxicant classification; for Emax / AC50: Homo sapiens; for Hit Call: Table S2, SOX17-positive cells, cutoff 3*bmad; for DevTox ACC: Table S2, percent SOX17-positive cells; for DevTox ACC / DevTox-GLR Endo ACC: 48 h exposure; for DevTox-GLR Endo ACC: activity concentration at cutoff, SOX17-positive cells; for HIT−CALL: tcpl plot AEID3094, COFF 20.3. As to the method: (§1) The total test chemical incubation period was 48 h.
(§2) Assay plate controls included non-differentiated pluripotent cells maintained in complete Essential 8 Flex medium (baseline control), endoderm differentiated cells (differentiation control), endoderm differentiated cells treated with DMSO (0.2%) (solvent control), and TGF-ß receptor inhibitor SB431542 (1 µM)-treated cells (developmental toxicant-positive control) (Figure S3). All experiments were completed with a minimum of four biological replicates (n = 4).
(§3) (Supplementary Materials).

For series [2] the following is noted: cited from earlier work; for Classification: developmental toxicant classification (Teratogen / Non-Teratogen) of reference and training chemicals, ref DOI per chemical: 10.1093/toxsci/kft239, 10.1093/toxsci/kfaa014, 10.1177/026119290203000204, 10.1038/s41598-020-59542-x; for Development Toxicant Classification: Table S2; for DT Class.: developmental toxicant classification, chemicals common with quickPredict.

The next series has as its system RUES2-GLR cells. As to the kind of experiment: DevTox GLR-Endo assay: decrease in total cell count, cytotoxicity (AEID 3098, CellCount_dn). The settings on record: for Emax: Homo sapiens, read-out: Cell Count % Max Inhibition. As to the method: as §1, §2, §3
Series [3] relates to SOX17 (endoderm marker) in RUES2-GLR cells. As to the kind of experiment: DevTox GLR-Endo assay: increase in percent SOX17-positive cells (AEID 3093, Sox17_up). Type of series: cell-based, human. The settings on record: for Emax: Homo sapiens; for HIT−CALL: tcpl plot AEID3093, COFF 20.3. As to the method: as §1, §3
Series [4] has as its system SOX2 (ectoderm and pluripotency marker) in RUES2-GLR cells. As to the kind of experiment: DevTox GLR-Endo assay: increase in percent SOX2-positive cells (AEID 3095, Sox2_up). The conditions noted are these: for AC50 / Emax: Homo sapiens; for AC50: read-out: ga (winning model); for Emax: read-out: tp (winning model); for MAX_MEAN: tcpl plot AEID3095, maximum mean response; for MAX_MED: tcpl plot AEID3095, maximum median response.

[5] abbreviates: read-out: DevTox % Max Inhibition.
Setting [6] is: read-out: maximum observed effect level class (% max inhibition).
Setting [7] is: tcpl plot AEID3093, maximum mean response, read-out: MAX_MEAN.
[8] abbreviates: tcpl plot AEID3093, maximum median response, read-out: MAX_MED.

Read-outs that look alike come from different tables or passages of the source.

`NC(=O)c1ccc(-c2nc(-c3ccc4c(c3)OCO4)c(-c3ccccn3)[nH]2)cc1` [SB431542]: in series [1] (1 µM positive control, 48 h endoderm induction), the “effect on SOX2 and SOX17 expression (in words)” value was “loss of both SOX2 and SOX17”.
Consider `Oc1cc(O)c2c(c1)OC(c1ccc(O)c(O)c1)C(O)C2` (stereo not drawn) [Cianidanol (Catechin)], for which the Classification entry in series [2] was “Non-Teratogen”.
As for `CCCCOC(=O)c1ccc(O)cc1` [Butylparaben, 4−Hydroxybenzoic acid butyl ester], in series [1], the “hit call designation (in words)” value is “false positive”. For the same compound, the Emax in series [1] (setting [5]) was 102%; in series [1] (read-out: MAX_MEAN) it was 101%; in series [1] (read-out: MAX_MED), 102%; in series [1] (setting [6]), 80 to 100%; in series [1] (read-out: tp (winning model)), 102%; with RUES2-GLR cells, 91.8%. The Emax in series [3] (setting [7]) was determined as 8.67%; in series [3] (setting [8]), 10.2%; in series [4] it was 6.25%. Moreover, the values for the AC50 in series [1] (read-out: ga (winning model)) and in series [4] were 50.1 µM and 115 µM, respectively. Moreover, the “Hit Call” value in series [1] is listed as “Positive”. Further, the “DevTox ACC” value in series [1] is 34.4685 µM. Moreover, in series [1], the “DevTox-GLR Endo ACC” value was 34.47 µM. Also, the “HIT−CALL” value came to 1 in series [1] and 0 in series [3]. Besides, in series [2], the “Development Toxicant Classification” value is reported as “Negative”. For the same compound, the Classification result in series [2] is “Non-Teratogen”. Also, the “DT Class.” value in series [2] was “Neg”. In series [4], this compound returned an MAX_MEAN of 4.14 Percent Activity. This compound yielded an MAX_MED in series [4] of 4.42 Percent Activity.
`CC1=C(/C=C/C(C)=C/C=C/C(C)=C/CO)C(C)(C)CCC1` [Retinol]: in series [1], the “hit call designation (in words)” value is recorded as “false positive”, the “Hit Call” value was “Positive”, the “DevTox ACC” value was 13.0451 µM and the “DevTox-GLR Endo ACC” value is 13.05 µM. Further, in series [1], the “HIT−CALL” value is 1. Moreover, the Emax in series [1] (setting [5]) came out at 94.5%. Also, in series [1] (read-out: MAX_MEAN), the Emax was 94.3%. Moreover, the Emax in series [1] (read-out: MAX_MED) is 94.5%. Further, the AC50 in series [1] (read-out: ga (winning model), tcpl plot AEID3094, gain parameter of winning curve fit (log concentration, µM axis), hit calls only (converted)) was 33.9 µM. Besides, in series [1] (setting [6]), the Emax was 80 to 100%. In addition, in series [1] (read-out: tp (winning model)), the Emax was found to be 117%. Besides, the Emax with RUES2-GLR cells is 97.3%. Further, in the series with RUES2-GLR cells (human, 48 h), the “Cell Count ACC” value is given as 12.6287 µM and the “DevTox-GLR Endo CC” value is reported as 12.63 µM. The Emax in series [3] (setting [7]) came out at 1.1%. Further, the Emax in series [3] (setting [8]) came out at 1.06%. In addition, the “HIT−CALL” value in series [3] was found to be 0. In series [2], the “Development Toxicant Classification” value is “Negative”, the Classification entry is given as “Non-Teratogen” and the “DT Class.” value was “Neg”. Moreover, in series [4], the AC50 was 46.8 µM, the Emax worked out at 26%, the MAX_MEAN is given as 23.5 Percent Activity and the MAX_MED worked out at 25.3 Percent Activity.
Turning to `Cc1ccc(NC(=O)c2ccc(CN3CCN(C)CC3)cc2)cc1Nc1nccc(-c2cccnc2)n1` [Imatinib], the Emax in series [1] (setting [5]) amounted to 101%; in series [1] (read-out: MAX_MEAN), 101%; in series [1] (read-out: MAX_MED), 101%; in series [1] (read-out: tp (winning model)) it was 101%; in the series on RUES2-GLR cells it was 97.8%; in series [3] (setting [7]) it was 7.83%. The Emax came to 8.88% in series [3] (setting [8]) and 6.56% in series [4]. In series [1], the “Hit Call” value is “Positive”. The results for the “HIT−CALL” value in series [1] and in series [3] were 1 and 0, respectively. The “Cell Count ACC” value with RUES2-GLR cells (human, 48 h) turned out to be 9.465 µM. In series [4], the AC50 was 14.1 µM. The MAX_MEAN in series [4] was found to be 6.74 Percent Activity. In series [4], this compound yielded an MAX_MED of 6.89 Percent Activity.
